Values of other authors as cited in patent US6830897B2, “High throughput screen for reducing drug candidate attrition” (Pfizer Inc., priority 2000, dated 2004).

Conditions: toxicities linked to formation of reactive metabolites; literature reference in brackets

Which “Toxicity (Ref.)” value does the source give for `COc1ccc2c(c1)c(CC(=O)O)c(C)n2C(=O)c1ccc(Cl)cc1` [Indomethacin] here?
The value was “Neutrophil toxicity (14)”.

For `CCCC(CCC)C(=O)O` [Valproic acid], which “Toxicity (Ref.)” value is on record?
The value was “Hepato- toxicity (17)”.

With `O=C1NC(=O)C(c2ccccc2)(c2ccccc2)N1` [Phenytoin] as the compound, how does the “Toxicity (Ref.)” value read?
The value was “Hepato- toxicity (18)”.

For `Cc1cccc(O)c1` [m-Cresol], which “Toxicity (Ref.)” value is on record?
The value was “Circulatory collapse, death (16)”.

For `COc1ccc(O)cc1` [4-hydroxyanisole], which “Toxicity (Ref.)” value is on record?
Its value is “Hepato- toxicity (15)”.

For `CC(=O)Nc1ccc(O)cc1` [Acetaminophen], which “Toxicity (Ref.)” value is on record?
The value was “Hepato- toxicity (11)”.

With `NC(=O)N1c2ccccc2C=Cc2ccccc21` [Carbamazepine] as the compound, how does the “Toxicity (Ref.)” value read?
Its value is “Hyper- sensitivity (13)”.

Which “Toxicity (Ref.)” value does the source give for `CC(C)c1ccc(O)cc1` [4-isopropylphenol] here?
The value was “Circulatory collapse, death (16)”.

Which “Toxicity (Ref.)” value does the source give for `CN1CCN(C2=Nc3cc(Cl)ccc3Nc3ccccc32)CC1` [Clozapine] here?
The value was “Neutrophil Cyto-toxicity (12)”.
